From ChEMBL document CHEMBL3885881, “DrugMatrix”

Species: Rattus norvegicus
Experiment: DrugMatrix - Regimen: Daily Repeat
Type: toxicity, organism-based, Sprague-Dawley
Parameters: regimen Daily Repeat, gender Male, age 6-8 weeks
Settings: in vivo, po, route oral GAVAGE, […]; for ABSOLUTE BASOPHIL / ABSOLUTE EOSINOPHIL / ABSOLUTE LYMPHOCYTE / ABSOLUTE MONOCYTE / ABSOLUTE SEGMENTED NEUTROPHIL / BASOPHIL / EOSINOPHIL / ERYTHROCYTE COUNT / HEMATOCRIT / HEMOGLOBIN / LEUKOCYTE COUNT / LYMPHOCYTE / MEAN CORPUSCULAR HEMOGLOBIN / MEAN CORPUSCULAR HEMOGLOBIN CONCENTRATION / MEAN CORPUSCULAR VOLUME / MONOCYTE / NEUTROPHIL / NUCLEATED RED BLOOD CELLS / PLATELET COUNT: tissue Blood; for ALANINE AMINOTRANSFERASE / ALBUMIN / ALKALINE PHOSPHATASE / ASPARTATE AMINOTRANSFERASE / BLOOD UREA NITROGEN / CARBON DIOXIDE / CHLORIDE / CHOLESTEROL / CREATINE PHOSPHOKINASE / CREATININE / GLUCOSE / LACTATE DEHYDROGENASE / LIPASE / PHOSPHORUS / POTASSIUM / SODIUM / TOTAL BILIRUBIN / TOTAL PROTEIN / URIC ACID: tissue Plasma
[1] = 2 mg/kg, 120 h, dose level High, time 5 day
[2] = 72 h, dose 0.58 mg/Kg, dose level Low, time 3 day
[3] = 120 h, dose 0.58 mg/Kg, dose level Low, time 5 day

In the case of COc1ccc2c(c1)c(CC(=O)OCC(=O)O)c(C)n2C(=O)c1ccc(Cl)cc1 [ACEMETACIN], the “ABSOLUTE BASOPHIL” value [1] is reported as 0 CELLS/uL, the “ABSOLUTE EOSINOPHIL” value [1] is reported as 198 CELLS/uL and the “ABSOLUTE LYMPHOCYTE” value [1] is reported as 16941.67 CELLS/uL. For the same molecule, the “ABSOLUTE MONOCYTE” value [1] was 330.33 CELLS/uL, the “ABSOLUTE SEGMENTED NEUTROPHIL” value [1] was 2163.33 CELLS/uL and the BASOPHIL [1] was 0%. The EOSINOPHIL [1] was 1%, the “ERYTHROCYTE COUNT” value [1] was 6.35 x10E6/uL and the HEMATOCRIT [1] was 38.5%. For the same molecule, the HEMOGLOBIN [1] was 14.23 G/DL, the “LEUKOCYTE COUNT” value [1] was 19.63 x10E3/uL and the LYMPHOCYTE [1] was 86.33%. The “MEAN CORPUSCULAR HEMOGLOBIN” value [1] was 22.47 pg, the “MEAN CORPUSCULAR HEMOGLOBIN CONCENTRATION” value [1] was 36.97 G/DL and the “MEAN CORPUSCULAR VOLUME” value [1] was 60.67 fL. The MONOCYTE [1] was 1.67%, the NEUTROPHIL [1] was 11% and the “NUCLEATED RED BLOOD CELLS” value [1] was 0 /100WBC. The “PLATELET COUNT” value [1] was 1196 x10E3/uL, the “ALANINE AMINOTRANSFERASE” value [1] was 77 u/L and the ALBUMIN [1] was 4.33 G/DL. The “ALKALINE PHOSPHATASE” value [1] was 434 u/L, the “ASPARTATE AMINOTRANSFERASE” value [1] was 106.33 u/L and the “BLOOD UREA NITROGEN” value [1] was 15.33 mg/dL. The “CARBON DIOXIDE” value [1] was 26 mmol/L, the CHLORIDE [1] was 102 MEQ/L and the CHOLESTEROL [1] was 58 mg/dL. For the same molecule, the “CREATINE PHOSPHOKINASE” value [1] was 673.33 u/L, the CREATININE [1] was 0.19 mg/dL and the GLUCOSE [1] was 155.33 mg/dL. The “LACTATE DEHYDROGENASE” value [1] was 783.33 u/L, the LIPASE [1] was 10 u/L and the PHOSPHORUS [1] was 11.9 mg/dL. The POTASSIUM [1] was 6.17 MEQ/L, the SODIUM [1] was 143.57 MEQ/L and the “TOTAL BILIRUBIN” value [1] was 0.2 mg/dL. The “TOTAL PROTEIN” value [1] was 5.87 G/DL, the “URIC ACID” value [1] was 1.93 mg/dL and the “ABSOLUTE BASOPHIL” value [2] was 0 CELLS/uL. For the same molecule, the “ABSOLUTE EOSINOPHIL” value [2] was 126 CELLS/uL, the “ABSOLUTE LYMPHOCYTE” value [2] was 13647.33 CELLS/uL and the “ABSOLUTE MONOCYTE” value [2] was 360 CELLS/uL. The “ABSOLUTE SEGMENTED NEUTROPHIL” value [2] was 1833.33 CELLS/uL, the BASOPHIL [2] was 0% and the EOSINOPHIL [2] was 0.67%. The “ERYTHROCYTE COUNT” value [2] was 5.77 x10E6/uL, the HEMATOCRIT [2] was 35.7% and the HEMOGLOBIN [2] was 13.3 G/DL. For the same molecule, the “LEUKOCYTE COUNT” value [2] was 15.97 x10E3/uL, the LYMPHOCYTE [2] was 85.67% and the “MEAN CORPUSCULAR HEMOGLOBIN” value [2] was 23.07 pg. The “MEAN CORPUSCULAR HEMOGLOBIN CONCENTRATION” value [2] was 37.23 G/DL, the “MEAN CORPUSCULAR VOLUME” value [2] was 61.97 fL and the MONOCYTE [2] was 2.33%. The NEUTROPHIL [2] was 11.33%, the “NUCLEATED RED BLOOD CELLS” value [2] was 0 /100WBC and the “PLATELET COUNT” value [2] was 1055 x10E3/uL. For the same molecule, the “ALANINE AMINOTRANSFERASE” value [2] was 66 u/L, the ALBUMIN [2] was 3.93 G/DL and the “ALKALINE PHOSPHATASE” value [2] was 319 u/L. The “ASPARTATE AMINOTRANSFERASE” value [2] was 94 u/L, the “BLOOD UREA NITROGEN” value [2] was 16.33 mg/dL and the “CARBON DIOXIDE” value [2] was 27 mmol/L. The CHLORIDE [2] was 102.33 MEQ/L, the CHOLESTEROL [2] was 67.33 mg/dL and the “CREATINE PHOSPHOKINASE” value [2] was 359 u/L. The CREATININE [2] was 0.19 mg/dL, the GLUCOSE [2] was 160.33 mg/dL and the “LACTATE DEHYDROGENASE” value [2] was 379.33 u/L. The LIPASE [2] was 9.67 u/L, the PHOSPHORUS [2] was 11.53 mg/dL and the POTASSIUM [2] was 6.9 MEQ/L. For the same molecule, the SODIUM [2] was 144.43 MEQ/L, the “TOTAL BILIRUBIN” value [2] was 0.2 mg/dL and the “TOTAL PROTEIN” value [2] was 5.37 G/DL. For the same molecule, the “URIC ACID” value [2] was 1.47 mg/dL, the “ABSOLUTE BASOPHIL” value [3] was 0 CELLS/uL and the “ABSOLUTE EOSINOPHIL” value [3] was 113 CELLS/uL. The “ABSOLUTE LYMPHOCYTE” value [3] was 13989.33 CELLS/uL, the “ABSOLUTE MONOCYTE” value [3] was 257.33 CELLS/uL and the “ABSOLUTE SEGMENTED NEUTROPHIL” value [3] was 2073.67 CELLS/uL. For the same molecule, the BASOPHIL [3] was 0%, the EOSINOPHIL [3] was 0.67% and the “ERYTHROCYTE COUNT” value [3] was 6.2 x10E6/uL. For the same molecule, the HEMATOCRIT [3] was 37.73%, the HEMOGLOBIN [3] was 13.77 G/DL and the “LEUKOCYTE COUNT” value [3] was 16.43 x10E3/uL. For the same molecule, the LYMPHOCYTE [3] was 85.33%, the “MEAN CORPUSCULAR HEMOGLOBIN” value [3] was 22.23 pg and the “MEAN CORPUSCULAR HEMOGLOBIN CONCENTRATION” value [3] was 36.53 G/DL. The “MEAN CORPUSCULAR VOLUME” value [3] was 60.93 fL, the MONOCYTE [3] was 1.67% and the NEUTROPHIL [3] was 12.33%. The “NUCLEATED RED BLOOD CELLS” value [3] was 0 /100WBC, the “PLATELET COUNT” value [3] was 1216 x10E3/uL and the “ALANINE AMINOTRANSFERASE” value [3] was 65.33 u/L. The ALBUMIN [3] was 4.53 G/DL, the “ALKALINE PHOSPHATASE” value [3] was 452 u/L and the “ASPARTATE AMINOTRANSFERASE” value [3] was 90.33 u/L. The “BLOOD UREA NITROGEN” value [3] was 19.67 mg/dL, the “CARBON DIOXIDE” value [3] was 26.67 mmol/L and the CHLORIDE [3] was 105 MEQ/L. For the same molecule, the CHOLESTEROL [3] was 58.33 mg/dL, the “CREATINE PHOSPHOKINASE” value [3] was 293.67 u/L and the CREATININE [3] was 0.22 mg/dL. The GLUCOSE [3] was 163.33 mg/dL, the “LACTATE DEHYDROGENASE” value [3] was 355 u/L and the LIPASE [3] was 9 u/L. For the same molecule, the PHOSPHORUS [3] was 11.6 mg/dL, the POTASSIUM [3] was 6.5 MEQ/L and the SODIUM [3] was 145.13 MEQ/L. The “TOTAL BILIRUBIN” value [3] was 0.13 mg/dL, the “TOTAL PROTEIN” value [3] was 6.27 G/DL and the “URIC ACID” value [3] was 1.97 mg/dL.
